Experiment: Effect of temperature (and pH) on the stability of the solution (purity)
Format: physicochemical
Conditions: 7% solution in water

Structure (SMILES): CCN(CC)CCOC(=O)COC(=O)Cc1c(C)n(C(=O)c2ccc(Cl)cc2)c2ccc(OC)cc12.Cl
- Purity(%) at day 0 (pH 1.0, day 0): 98.1 ± 0.3%
- Purity(%) at day 21 (5° C.) (pH 1.0, day 21, 5° C.): 91.9 ± 0.3%
- Purity(%) at day 21 (25° C.) (pH 1.0, day 21, 25° C.): 67.3 ± 0.3%
- Purity(%) at day 21 (40° C.) (pH 1.0, day 21, 40° C.): 15.6 ± 0.3%
- Purity (%) at day 21 (60° C.) (pH 1.0, day 21, 60° C.): 0%
- Purity(%) at day 0 (pH 2.0, day 0): 98.3 ± 0.3%
- Purity(%) at day 21 (5° C.) (pH 2.0, day 21, 5° C.): 95.7 ± 0.2%
- Purity(%) at day 21 (25° C.) (pH 2.0, day 21, 25° C.): 82.2 ± 0.2%
- Purity(%) at day 21 (40° C.) (pH 2.0, day 21, 40° C.): 26.7 ± 0.3%
- Purity (%) at day 21 (60° C.) (pH 2.0, day 21, 60° C.): 0%
- Purity(%) at day 0 (pH 3.0, day 0): 98.5 ± 0.2%
- Purity(%) at day 21 (5° C.) (pH 3.0, day 21, 5° C.): 98.0 ± 0.2%
- Purity(%) at day 21 (25° C.) (pH 3.0, day 21, 25° C.): 93.0 ± 0.2%
- Purity(%) at day 21 (40° C.) (pH 3.0, day 21, 40° C.): 47.7 ± 0.3%
- Purity (%) at day 21 (60° C.) (pH 3.0, day 21, 60° C.): 0%
- Purity(%) at day 0 (pH 3.7, day 0): 98.7 ± 0.1%
- Purity(%) at day 21 (5° C.) (pH 3.7, day 21, 5° C.): 98.2 ± 0.1%
- Purity(%) at day 21 (25° C.) (pH 3.7, day 21, 25° C.): 97.1 ± 0.1%
- Purity(%) at day 21 (40° C.) (pH 3.7, day 21, 40° C.): 57.6 ± 0.2%
- Purity (%) at day 21 (60° C.) (pH 3.7, day 21, 60° C.): 13.9 ± 0.3%
- Purity(%) at day 0 (pH 4.0, day 0): 98.7 ± 0.1%
- Purity(%) at day 21 (5° C.) (pH 4.0, day 21, 5° C.): 98.4 ± 0.1%
- Purity(%) at day 21 (25° C.) (pH 4.0, day 21, 25° C.): 97.4 ± 0.2%
- Purity(%) at day 21 (40° C.) (pH 4.0, day 21, 40° C.): 68.7 ± 0.3%
- Purity (%) at day 21 (60° C.) (pH 4.0, day 21, 60° C.): 19.2 ± 0.3%
- Purity(%) at day 0 (pH 4.3, day 0): 98.8 ± 0.2%
- Purity(%) at day 21 (5° C.) (pH 4.3, day 21, 5° C.): 98.5 ± 0.1%
- Purity(%) at day 21 (25° C.) (pH 4.3, day 21, 25° C.): 97.5 ± 0.1%
- Purity(%) at day 21 (40° C.) (pH 4.3, day 21, 40° C.): 68.6 ± 0.3%
- Purity (%) at day 21 (60° C.) (pH 4.3, day 21, 60° C.): 17.9 ± 0.2%
- Purity(%) at day 0 (pH 4.6, day 0): 98.8 ± 0.2%
- Purity(%) at day 21 (5° C.) (pH 4.6, day 21, 5° C.): 98.4 ± 0.2%
- Purity(%) at day 21 (25° C.) (pH 4.6, day 21, 25° C.): 96.5 ± 0.2%
- Purity(%) at day 21 (40° C.) (pH 4.6, day 21, 40° C.): 53.7 ± 0.2%
- Purity (%) at day 21 (60° C.) (pH 4.6, day 21, 60° C.): 14.8 ± 0.3%
- Purity(%) at day 0 (pH 5.0, day 0): 98.6 ± 0.2%
- Purity(%) at day 21 (5° C.) (pH 5.0, day 21, 5° C.): 97.1 ± 0.2%
- Purity(%) at day 21 (25° C.) (pH 5.0, day 21, 25° C.): 93.8 ± 0.2%
- Purity(%) at day 21 (40° C.) (pH 5.0, day 21, 40° C.): 39.8 ± 0.3%
- Purity (%) at day 21 (60° C.) (pH 5.0, day 21, 60° C.): 3.2 ± 0.2%
- Purity(%) at day 0 (pH 6.0, day 0): 98.4 ± 0.2%
- Purity(%) at day 21 (5° C.) (pH 6.0, day 21, 5° C.): 95.8 ± 0.2%
- Purity(%) at day 21 (25° C.) (pH 6.0, day 21, 25° C.): 86.9 ± 0.2%
- Purity(%) at day 21 (40° C.) (pH 6.0, day 21, 40° C.): 28.8 ± 0.2%
- Purity (%) at day 21 (60° C.) (pH 6.0, day 21, 60° C.): 0%
- Purity(%) at day 0 (pH 7.0, day 0): 98.1 ± 0.2%
- Purity(%) at day 21 (5° C.) (pH 7.0, day 21, 5° C.): 90.2 ± 0.3%
- Purity(%) at day 21 (25° C.) (pH 7.0, day 21, 25° C.): 59.7 ± 0.3%
- Purity(%) at day 21 (40° C.) (pH 7.0, day 21, 40° C.): 11.2 ± 0.4%
- Purity (%) at day 21 (60° C.) (pH 7.0, day 21, 60° C.): 0%
- Purity(%) at day 0 (pH 8.0, day 0): 97.7 ± 0.3%
- Purity(%) at day 21 (5° C.) (pH 8.0, day 21, 5° C.): 78.5 ± 0.2%
- Purity(%) at day 21 (25° C.) (pH 8.0, day 21, 25° C.): 47.9 ± 0.3%
- Purity(%) at day 21 (40° C.) (pH 8.0, day 21, 40° C.): 0%
- Purity (%) at day 21 (60° C.) (pH 8.0, day 21, 60° C.): 0%

Source: US20230157952A1, “METHOD FOR IMPROVING THE STABILITY OF A PHARMACEUTICAL COMPOSITION COMPRISING A HIGH PENETRATION DRUG, AND THE PHARMACEUTICAL COMPOSITION OBTAINED THEREFROM” (Techfields Inc., priority 2020, published 2023)
